Laboratory results published in patent EP2535046A1 (priority 2011, dated 2012).

Assays:
RABV [1] = tested on: RABV; set-up: species or system mice; conditions: mouse, in vivo
[2] = tested on: STAT3, STAT3-P, ERK1/2, phosphorylated-ERK1/2 (Thr202/Tyr204); set-up: species or system mice; conditions: mouse, in vivo
[3] = tested on: IL-6, CXCL10, IFN-γ and TNFα; set-up: species or system mice; conditions: mouse, in vivo
[4] = tested on: thymocytes and splenocytes; set-up: species or system mice; conditions: mouse, in vivo
splenocytes subsets = tested on: splenocytes subsets; set-up: species or system mice; conditions: mouse, in vivo
RABV [5] = tested on: RABV; set-up: species or system mice; conditions: mouse, in vivo; remark: listed apart in the source
Fkbp51 = tested on: Fkbp51; set-up: species or system mice; conditions: mouse, in vivo
nNOS = tested on: nNOS; set-up: species or system mice; conditions: mouse, in vivo
RABV CVS-NIV = tested on: RABV CVS-NIV; set-up: species or system C57BL/6J mice; conditions: mouse, in vivo
[6] = mouse, in vivo

CNC1(C)C2CCC(C2)C1(C)C (stereo not drawn) [mecamylamine, N,2,3,3-Tetramethylbicyclo[2.2.1] heptan-2 amine]
RABV N protein transcripts among survivors (RABV [1]): less viral transcripts than the mock-treated animals | expression and phosphorylation of STAT3 and ERK1/2 in the brain [2]: reduces expression and phosphorylation of STAT3 and ERK1/2 to levels similar to those observed in the non-infected brain | IFN-γ and TNFα transcription in the spinal cord [3]: slowed-down | IL6 or CXCL10 kinetic in the spinal cord [3]: no effect | cytokines expression at transcriptional level (IL-6, CXCL10, IFN-γ, TNFα) in the brain [3]: did not modify significantly | inflammatory cytokines expression in the liver [3]: No difference | number of splenocytes [4]: increased the number of splenocytes | cellularity of the spleen (number of splenocytes) ([4]; ip, 2 mg/kg): protects cellularity of the spleen | number of thymocytes (RABV-mediated drop) ([4]; ip, 2 mg/kg): no effect on the drop of thymocytes | main subsets of spleen cells (TCRαβ, CMH class II, CD4, CD8, plasmocytes expressing IgG) (splenocytes subsets): prevents the RABV-mediated disappearance | numbers of CD4 T cells expressing CD25 and numbers of CD3 expressing CD69 (splenocytes subsets): restored | effect on RABV specific neutralizing antibodies (RABV [5]): no effect | transcription of the glucocorticoid-inducible gene Fkbp51 (Fkbp51): no effect | nNOS transcription in the brain (nNOS): block the nNOS decrease | RABV pathogenesis (RABV CVS-NIV): did not modify RABV pathogenesis | clinical scores (RABV CVS-NIV): decreases the severity of the clinical scores | weight loss (RABV CVS-NIV): interrupted the weight loss | side effects such as weight loss or behavior modification [6]: does not induced obvious side effects
